Measured values taken from patent publication US7524880B2, “Crystalline form of a substituted pyrrolidine compound” (Theravance, Inc., priority 2004, dated 2009).

Tests used:
[1] = tested on: ACh-induced bronchoconstriction; assay: Duration of bronchoprotection in guinea pig model of acetylcholine-induced bronchoconstriction; assay type: in vivo; conditions: inhalation, 1.5 hours post-dose
Procedure: Groups of six male guinea pigs (Duncan-Hartley (HsdPoc:DH) Harlan, Madison, Wis.) weighing between 250 and 350 g were individually identified by cage cards. Throughout the study animals were allowed access to food and water ad libitum.
The test compound was administered via inhalation over 10 minutes in a whole-body exposure dosing chamber (R&S Molds, San Carlos, Calif.). The dosing chambers were arranged so that an aerosol was simultaneously delivered to 6 individual chambers from a central manifold. Guinea pigs were exposed to an aerosol of a test compound or vehicle (WFI). […] This was measured gravimetrically by comparing pre-and post-nebulization weights of the filled nebulizer.
The bronchoprotective effects of a test compound administered via inhalation were evaluated using whole body plethysmography at 1.5, 24, 48 and 72 hours post-dose.
Forty-five minutes prior to the start of the pulmonary evaluation, each guinea pig was anesthetized with an intramuscular injection of ketamine (43.75 mg/kg), xylazine (3.50 mg/kg) and acepromazine (1.05 mg/kg). […] The depth of anesthesia was monitored and adjusted if the animal responded to pinching of its paw or if the respiration rate was greater than 100 breaths/minute. […]
Starting this program initiated the experimental protocol and data collection. […] By integrating this signal over time, a measurement of flow was calculated for each breath. […]

[2] = molecular target: T1, hM3 receptor (Homo sapiens, UniProt P20309); assay: Blockade of agonist-mediated calcium release via FLIPR; assay type: cell-based; conditions: CHO cells stably expressing the hM3 receptor, oxotremorine EC90
T1 construct: expressed in transfected cells
T1 sequence (P20309 whole entry): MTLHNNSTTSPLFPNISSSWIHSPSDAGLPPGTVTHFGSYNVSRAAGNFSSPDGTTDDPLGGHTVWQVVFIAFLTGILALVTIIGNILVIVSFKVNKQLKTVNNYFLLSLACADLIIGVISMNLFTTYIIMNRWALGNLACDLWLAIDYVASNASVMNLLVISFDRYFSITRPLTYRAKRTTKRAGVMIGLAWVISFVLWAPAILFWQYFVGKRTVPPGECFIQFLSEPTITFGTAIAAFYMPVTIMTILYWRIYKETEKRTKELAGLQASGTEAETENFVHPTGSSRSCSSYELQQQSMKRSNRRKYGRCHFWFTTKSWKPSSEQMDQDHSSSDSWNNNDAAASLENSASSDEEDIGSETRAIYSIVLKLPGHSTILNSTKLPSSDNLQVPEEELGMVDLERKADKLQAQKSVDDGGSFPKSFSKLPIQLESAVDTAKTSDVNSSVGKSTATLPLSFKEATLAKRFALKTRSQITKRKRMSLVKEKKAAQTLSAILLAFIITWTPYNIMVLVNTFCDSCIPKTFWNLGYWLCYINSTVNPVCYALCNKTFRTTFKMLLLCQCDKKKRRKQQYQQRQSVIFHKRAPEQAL
Text: C. Blockade of Agonist-Mediated Calcium Release Via FLIPR Assays
Muscarinic receptor subtypes (M1, M3 and M5 receptors), which couple to Gq proteins, activate the phospholipase C (PLC) pathway upon agonist binding to the receptor. As a result, activated PLC hydrolyzes phosphatyl inositol diphosphate (PIP2) to diacylglycerol (DAG) and phosphatidyl-1,4,5-triphosphate (IP3), which in turn generates calcium release from intracellular stores, i.e., endoplasmic and sarcoplasmic reticulum. […] This fluorescence event is measured in real time by the FLIPR, which detects the change in fluorescence from a monolayer of cells cloned with human M1 and M3, and chimpanzee M5 receptors. Antagonist potency is determined by the ability of antagonists to inhibit agonist-mediated increases in intracellular calcium. […]
To determine antagonist potency, the dose-dependent stimulation of intracellular Ca^2+ release for oxotremorine was first determined so that antagonist potency can later be measured against oxotremorine stimulation at an EC90 concentration. […]
The parameters used for the FLIPR were: exposure length of 0.4 seconds, laser strength of 0.5 watts, excitation wavelength of 488 nm, and emission wavelength of 550 nm. Baseline was determined by measuring the change in fluorescence for 10 seconds prior to addition of agonist. […]

CNCCCCCCCCN1CC[C@@H](C(C(N)=O)(c2ccccc2)c2ccccc2)C1 [compound of formula I, 2-[(S)-1-(8-methylaminooctyl)pyrrolidin-3-yl]-2,2-diphenylacetamide]
PD2(50) for ACh-induced bronchoconstriction [1]: less than 200 μg/mL
Ki [2]: < 5 nM
